What all share (type): biochemical
The target in one experiment is MAP2K1 (Homo sapiens, UniProt Q02750). The experiment is described as follows: Other kinase MSA: MAP2K1. The settings on record: 25 μM ATP, ERKtide substrate; pre-activation of ERK 30 min, detection after 60 minutes; read-out: IC50, Enzyme MAP2K1. As to the method:
Kinase activity, unless otherwise indicated, was measured in vitro using an electrophoretic mobility shift assay (MSA). The phosphorylation of a peptide substrate by BTK and other kinases was measured. The kinase reactions were assembled in a total volume of 25 μL per well in 384 well plates. The following was added to each well: compound buffer (or control); enzyme buffer; and substrate buffer, as further described below. […]
(§1) Enzyme and compound/inhibitor were optionally pre-incubated. […] The kinase activity for the kinases in Table 3 were measured at 3 hours incubation time, except that in the case of MAP2K1 and MAP2K2 assay, pre-activation of ERK was done for 30 min with 6 μM of ATP, and then the detection of activated ERK in the presence of compounds was done after 60 minutes of incubation.
The terminated reactions were analyzed using a 12 channel LABCHIP® 3000 microfluidic detection instrument (available from Caliper Life Sciences, Waltham, Mass.). […] As substrate and product peptides were separated, two peaks of fluorescence were observed. Change in the relative fluorescence intensity of the substrate and product peaks was the parameter measured, reflecting enzyme activity. […] Capillary electrophoregrams (RDA acquisition files) were analyzed using HTS Well Analyzer software (available from Caliper Life Sciences, Waltham, Mass.). […]

Another experiment has as its target T1, BTK (Homo sapiens, UniProt Q06187).
T1 construct: purchased Nanosyn, Santa Clara, Calif; host or cells: 293HEK
Kind of experiment: BTK kinase electrophoretic mobility shift assay (MSA). Conditions: 50 μM ATP, 0.5 nM BTK enzyme (Nanosyn-293HEK, WT), 3 hours at 25° C.; all examples except 50, 51, 62 and 63; read-out: BTK IC50.

In the next experiment the target is EGFR (Homo sapiens, UniProt P00533). Kind of experiment: Other kinase MSA: EGFR. The settings on record: 5 μM ATP, CSKtide substrate, 3 hours; read-out: IC50, Enzyme EGFR. As to the method:
Kinase activity, unless otherwise indicated, was measured in vitro using an electrophoretic mobility shift assay (MSA). The phosphorylation of a peptide substrate by BTK and other kinases was measured. The kinase reactions were assembled in a total volume of 25 μL per well in 384 well plates. The following was added to each well: compound buffer (or control); enzyme buffer; and substrate buffer, as further described below.
as §1, with “pre-incubated. To each well was added: 8 μL of 2.5×ATP and substrate in 1× Master Buffer (1× Master Buffer as described above). The plate was incubated at room temperature for 3 hours. […] OG488 was Oregon Green dye, which was conjugated to the peptide substrate.” for “pre-incubated.”
The terminated reactions were analyzed using a 12 channel LABCHIP® 3000 microfluidic detection instrument (available from Caliper Life Sciences, Waltham, Mass.). […] Change in the relative fluorescence intensity of the substrate and product peaks was the parameter measured, reflecting enzyme activity. […]

EGFR, sequence (P00533 25-1210, species assumed): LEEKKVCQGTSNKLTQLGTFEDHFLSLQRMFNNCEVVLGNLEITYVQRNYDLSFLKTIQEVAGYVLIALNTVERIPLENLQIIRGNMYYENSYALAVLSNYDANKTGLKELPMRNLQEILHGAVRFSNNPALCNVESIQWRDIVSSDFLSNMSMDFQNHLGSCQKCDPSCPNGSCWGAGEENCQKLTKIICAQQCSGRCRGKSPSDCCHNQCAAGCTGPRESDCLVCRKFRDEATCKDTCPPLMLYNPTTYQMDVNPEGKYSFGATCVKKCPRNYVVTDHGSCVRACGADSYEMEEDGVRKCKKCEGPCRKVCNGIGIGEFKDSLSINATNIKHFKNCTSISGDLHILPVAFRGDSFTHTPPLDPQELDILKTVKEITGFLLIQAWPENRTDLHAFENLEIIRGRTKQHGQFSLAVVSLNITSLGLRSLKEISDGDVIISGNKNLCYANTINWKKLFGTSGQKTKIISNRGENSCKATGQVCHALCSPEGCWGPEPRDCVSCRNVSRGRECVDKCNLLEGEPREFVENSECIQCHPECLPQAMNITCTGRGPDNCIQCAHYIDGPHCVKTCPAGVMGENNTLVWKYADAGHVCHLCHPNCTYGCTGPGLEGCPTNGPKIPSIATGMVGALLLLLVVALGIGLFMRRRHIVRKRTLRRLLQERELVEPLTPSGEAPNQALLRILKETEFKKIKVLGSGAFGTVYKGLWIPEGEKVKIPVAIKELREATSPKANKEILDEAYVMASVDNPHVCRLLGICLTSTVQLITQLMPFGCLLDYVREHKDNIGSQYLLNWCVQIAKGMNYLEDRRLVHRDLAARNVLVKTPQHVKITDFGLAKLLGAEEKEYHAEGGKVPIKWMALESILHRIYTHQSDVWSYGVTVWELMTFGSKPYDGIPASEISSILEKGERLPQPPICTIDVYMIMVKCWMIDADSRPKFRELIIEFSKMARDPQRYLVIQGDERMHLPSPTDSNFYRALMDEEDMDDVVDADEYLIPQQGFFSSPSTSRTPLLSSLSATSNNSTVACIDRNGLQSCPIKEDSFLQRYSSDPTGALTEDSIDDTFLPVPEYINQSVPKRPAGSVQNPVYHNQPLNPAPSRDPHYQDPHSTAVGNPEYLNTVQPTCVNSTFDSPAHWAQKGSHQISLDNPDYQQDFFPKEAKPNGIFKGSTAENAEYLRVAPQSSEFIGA
MAP2K1, sequence (Q02750 whole entry, species assumed): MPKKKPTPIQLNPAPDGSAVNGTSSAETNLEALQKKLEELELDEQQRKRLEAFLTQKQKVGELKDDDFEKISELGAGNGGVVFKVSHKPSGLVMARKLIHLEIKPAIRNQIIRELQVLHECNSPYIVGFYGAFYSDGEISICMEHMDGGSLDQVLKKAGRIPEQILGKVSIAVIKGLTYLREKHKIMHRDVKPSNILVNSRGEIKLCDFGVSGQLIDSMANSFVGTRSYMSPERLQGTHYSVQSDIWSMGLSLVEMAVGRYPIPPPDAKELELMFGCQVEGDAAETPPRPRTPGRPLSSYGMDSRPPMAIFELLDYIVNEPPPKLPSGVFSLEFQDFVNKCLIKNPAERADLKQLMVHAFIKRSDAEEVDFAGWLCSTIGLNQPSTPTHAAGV
T1 sequence (Q06187 whole entry): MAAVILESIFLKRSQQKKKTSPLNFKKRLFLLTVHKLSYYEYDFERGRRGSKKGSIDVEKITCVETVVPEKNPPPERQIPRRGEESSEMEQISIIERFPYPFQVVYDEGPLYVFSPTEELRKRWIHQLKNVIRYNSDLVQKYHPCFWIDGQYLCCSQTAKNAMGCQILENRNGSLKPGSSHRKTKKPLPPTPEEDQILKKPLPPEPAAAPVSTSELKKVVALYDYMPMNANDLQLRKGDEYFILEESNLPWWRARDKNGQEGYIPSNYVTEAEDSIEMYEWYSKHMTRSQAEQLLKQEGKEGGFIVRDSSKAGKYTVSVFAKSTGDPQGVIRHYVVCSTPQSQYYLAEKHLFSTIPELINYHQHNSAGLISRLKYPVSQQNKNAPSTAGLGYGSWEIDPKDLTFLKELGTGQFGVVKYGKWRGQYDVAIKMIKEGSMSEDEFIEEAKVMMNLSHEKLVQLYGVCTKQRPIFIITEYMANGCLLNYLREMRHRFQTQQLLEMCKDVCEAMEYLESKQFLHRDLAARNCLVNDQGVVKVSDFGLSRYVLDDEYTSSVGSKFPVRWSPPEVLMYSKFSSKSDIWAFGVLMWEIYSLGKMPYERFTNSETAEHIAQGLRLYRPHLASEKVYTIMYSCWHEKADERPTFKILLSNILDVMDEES

On to `C=CC(=O)N1CCC([C@@H]2CCNc3c(C(N)=O)c(-c4ccc(Oc5ccccc5)cc4)nn32)CC1` [Compound A, reference compound], for which the half-inhibitory concentration (IC50) at MAP2K1 was determined as 41.3 nM. Take `C=CC(=O)N1CCN([C@@H]2CCNc3c2nn(-c2ccc(Oc4ccccc4)cc2)c3C(N)=O)CC1` [Example 6, (7R)-2-(4-phenoxyphenyl)-7-[4-(prop-2-enoyl)piperazin-1-yl]-4,5,6,7-tetrahydro-2H-pyrazolo[4,3-b]pyridine-3-carboxamide]: the concentration for half-maximal inhibition (IC50) at BTK came to 1.1 nM; at EGFR it was 844 nM.

In general, IC50 refers to the concentration that inhibits the measured activity by half.

These data come from patent publication US20220213092A1, “BICYCLIC PYRAZOLE BRUTON'S TYROSINE KINASE INHIBITORS” (AbbVie Inc., priority 2020, published 2022).
